The values below come from ChEMBL document CHEMBL5291721, “A preclinical secondary pharmacology resource illuminates target-adverse drug reaction associations of marketed drugs” (Nat Commun, 2023).

The AC50 is the concentration giving half of the maximal activity seen. Low values mean greater potency, high ones weaker potency.

Test [1] has as its target Gamma-aminobutyric acid receptor subunit alpha-1 (Rattus norvegicus, UniProt P62813).
The target in test [2] is T1, Androgen receptor (Homo sapiens, UniProt P10275).
T1 sequence (P10275 whole entry): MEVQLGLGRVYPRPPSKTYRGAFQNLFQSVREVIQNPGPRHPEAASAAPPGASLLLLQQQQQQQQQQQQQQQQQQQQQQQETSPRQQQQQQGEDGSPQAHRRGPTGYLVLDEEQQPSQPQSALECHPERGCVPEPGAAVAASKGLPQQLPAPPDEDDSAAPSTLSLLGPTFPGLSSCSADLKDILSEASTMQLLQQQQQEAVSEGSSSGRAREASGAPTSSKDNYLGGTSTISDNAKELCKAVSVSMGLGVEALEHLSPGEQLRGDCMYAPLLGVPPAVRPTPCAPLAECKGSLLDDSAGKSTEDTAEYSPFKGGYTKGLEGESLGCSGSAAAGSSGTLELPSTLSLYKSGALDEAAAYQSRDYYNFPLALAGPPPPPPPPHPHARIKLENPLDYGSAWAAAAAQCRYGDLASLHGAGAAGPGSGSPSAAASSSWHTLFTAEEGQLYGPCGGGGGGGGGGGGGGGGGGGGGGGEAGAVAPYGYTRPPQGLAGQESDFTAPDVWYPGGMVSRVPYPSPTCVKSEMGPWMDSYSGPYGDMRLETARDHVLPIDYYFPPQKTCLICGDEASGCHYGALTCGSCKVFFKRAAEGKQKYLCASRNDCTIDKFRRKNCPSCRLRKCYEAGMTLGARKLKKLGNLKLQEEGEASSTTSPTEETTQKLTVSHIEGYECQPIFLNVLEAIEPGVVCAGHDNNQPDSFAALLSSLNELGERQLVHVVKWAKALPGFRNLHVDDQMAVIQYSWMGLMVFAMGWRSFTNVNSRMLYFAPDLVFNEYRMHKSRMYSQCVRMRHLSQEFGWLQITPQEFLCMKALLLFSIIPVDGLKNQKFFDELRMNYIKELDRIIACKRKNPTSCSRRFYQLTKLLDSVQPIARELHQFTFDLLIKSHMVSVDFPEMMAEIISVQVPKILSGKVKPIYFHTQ

For test [3], the target named is Gamma-aminobutyric acid receptor subunit alpha-1/alpha-2/beta-2/gamma-2 (Homo sapiens, UniProt P14867+P18507+P47869+P47870). Format: protein-complex assay.
Sequence of Gamma-aminobutyric acid receptor subunit alpha-1/alpha-2/beta-2/gamma-2 (P14867 whole entry): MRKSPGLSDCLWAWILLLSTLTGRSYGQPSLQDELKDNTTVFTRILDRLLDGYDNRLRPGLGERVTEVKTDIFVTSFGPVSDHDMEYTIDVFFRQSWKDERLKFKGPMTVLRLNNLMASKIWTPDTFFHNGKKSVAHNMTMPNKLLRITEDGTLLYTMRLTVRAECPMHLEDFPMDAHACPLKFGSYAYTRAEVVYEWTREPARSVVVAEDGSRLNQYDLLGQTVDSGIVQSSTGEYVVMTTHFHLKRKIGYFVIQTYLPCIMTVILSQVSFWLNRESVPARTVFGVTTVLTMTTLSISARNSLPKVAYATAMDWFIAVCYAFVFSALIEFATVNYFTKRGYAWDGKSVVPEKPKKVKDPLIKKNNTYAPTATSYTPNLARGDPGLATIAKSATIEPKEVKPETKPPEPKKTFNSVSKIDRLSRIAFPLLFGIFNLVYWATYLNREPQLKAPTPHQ
Sequence of Gamma-aminobutyric acid receptor subunit alpha-1/alpha-2/beta-2/gamma-2 (P47870 whole entry): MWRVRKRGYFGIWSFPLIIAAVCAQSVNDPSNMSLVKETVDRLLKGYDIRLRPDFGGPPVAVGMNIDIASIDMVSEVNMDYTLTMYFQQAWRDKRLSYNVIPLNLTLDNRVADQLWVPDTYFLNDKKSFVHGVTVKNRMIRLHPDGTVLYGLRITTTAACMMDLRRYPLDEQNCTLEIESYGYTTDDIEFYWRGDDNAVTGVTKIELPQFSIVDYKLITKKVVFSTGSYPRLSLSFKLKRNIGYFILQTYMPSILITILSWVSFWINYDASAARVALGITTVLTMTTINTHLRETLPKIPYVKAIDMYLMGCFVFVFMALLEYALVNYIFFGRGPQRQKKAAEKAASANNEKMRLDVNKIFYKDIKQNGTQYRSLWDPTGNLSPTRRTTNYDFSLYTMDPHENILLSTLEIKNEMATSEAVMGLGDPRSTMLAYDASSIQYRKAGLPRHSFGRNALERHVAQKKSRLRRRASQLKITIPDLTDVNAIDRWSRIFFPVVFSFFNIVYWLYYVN
Sequence of Gamma-aminobutyric acid receptor subunit alpha-1/alpha-2/beta-2/gamma-2 (P18507 whole entry): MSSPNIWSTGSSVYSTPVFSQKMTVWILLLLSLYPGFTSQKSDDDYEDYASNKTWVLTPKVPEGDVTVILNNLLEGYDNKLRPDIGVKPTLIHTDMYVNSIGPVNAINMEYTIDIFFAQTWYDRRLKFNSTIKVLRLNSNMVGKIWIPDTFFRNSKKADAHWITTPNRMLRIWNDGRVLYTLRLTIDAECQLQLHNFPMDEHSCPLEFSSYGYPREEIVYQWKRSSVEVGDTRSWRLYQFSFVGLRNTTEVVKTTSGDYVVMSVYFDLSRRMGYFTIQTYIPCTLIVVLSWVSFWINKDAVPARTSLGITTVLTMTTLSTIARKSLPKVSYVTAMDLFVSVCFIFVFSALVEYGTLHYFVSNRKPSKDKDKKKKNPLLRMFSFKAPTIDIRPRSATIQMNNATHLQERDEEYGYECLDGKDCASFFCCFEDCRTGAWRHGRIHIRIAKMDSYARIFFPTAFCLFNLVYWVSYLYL
Sequence of Gamma-aminobutyric acid receptor subunit alpha-1/alpha-2/beta-2/gamma-2 (P47869 whole entry): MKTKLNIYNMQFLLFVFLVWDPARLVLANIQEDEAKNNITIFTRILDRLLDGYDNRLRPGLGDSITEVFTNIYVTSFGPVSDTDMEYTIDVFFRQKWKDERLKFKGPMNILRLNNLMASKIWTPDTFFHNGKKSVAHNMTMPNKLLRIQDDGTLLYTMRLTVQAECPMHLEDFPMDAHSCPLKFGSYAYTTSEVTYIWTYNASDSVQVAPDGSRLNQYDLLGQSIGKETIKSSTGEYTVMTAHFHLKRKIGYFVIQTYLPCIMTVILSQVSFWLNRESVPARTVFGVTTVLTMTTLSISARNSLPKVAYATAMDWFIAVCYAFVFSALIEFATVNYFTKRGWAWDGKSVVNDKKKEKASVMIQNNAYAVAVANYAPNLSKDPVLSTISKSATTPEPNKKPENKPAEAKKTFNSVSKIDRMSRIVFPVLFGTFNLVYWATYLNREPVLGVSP
Test [4] has as its target T2, Muscarinic acetylcholine receptor M1 (Homo sapiens, UniProt P11229).
T2 sequence (P11229 whole entry): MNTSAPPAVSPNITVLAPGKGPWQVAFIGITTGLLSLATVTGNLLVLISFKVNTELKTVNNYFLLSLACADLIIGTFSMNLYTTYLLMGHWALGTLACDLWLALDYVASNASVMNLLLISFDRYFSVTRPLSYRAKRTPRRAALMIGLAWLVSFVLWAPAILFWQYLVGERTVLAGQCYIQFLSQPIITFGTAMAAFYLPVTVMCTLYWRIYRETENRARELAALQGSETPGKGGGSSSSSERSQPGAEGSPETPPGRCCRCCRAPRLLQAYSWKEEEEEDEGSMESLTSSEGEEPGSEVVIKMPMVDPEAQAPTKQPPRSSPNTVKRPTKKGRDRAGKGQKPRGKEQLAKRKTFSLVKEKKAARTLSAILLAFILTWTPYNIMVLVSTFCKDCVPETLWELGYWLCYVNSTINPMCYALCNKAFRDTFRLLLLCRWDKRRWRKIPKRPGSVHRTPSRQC
Format: functional, cell-based.

Test [5] deals with T3, Adenosine receptor A3 (Homo sapiens, UniProt P0DMS8).
T3 sequence (P0DMS8 whole entry): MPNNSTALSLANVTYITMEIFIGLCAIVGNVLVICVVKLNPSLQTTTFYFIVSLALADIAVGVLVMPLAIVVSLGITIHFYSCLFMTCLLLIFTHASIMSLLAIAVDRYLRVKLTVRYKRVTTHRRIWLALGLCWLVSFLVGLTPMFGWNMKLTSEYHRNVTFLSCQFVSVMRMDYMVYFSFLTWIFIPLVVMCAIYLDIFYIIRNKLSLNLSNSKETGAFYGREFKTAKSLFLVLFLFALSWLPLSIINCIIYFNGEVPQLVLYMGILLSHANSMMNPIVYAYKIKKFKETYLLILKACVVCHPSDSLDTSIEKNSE

The target in test [6] is T2, Muscarinic acetylcholine receptor M1. Format: functional, cell-based. The source holds these as a separate data set.
For test [7], the target named is T4, Alpha-2A adrenergic receptor (Homo sapiens, UniProt P08913).
T4 sequence (P08913 whole entry): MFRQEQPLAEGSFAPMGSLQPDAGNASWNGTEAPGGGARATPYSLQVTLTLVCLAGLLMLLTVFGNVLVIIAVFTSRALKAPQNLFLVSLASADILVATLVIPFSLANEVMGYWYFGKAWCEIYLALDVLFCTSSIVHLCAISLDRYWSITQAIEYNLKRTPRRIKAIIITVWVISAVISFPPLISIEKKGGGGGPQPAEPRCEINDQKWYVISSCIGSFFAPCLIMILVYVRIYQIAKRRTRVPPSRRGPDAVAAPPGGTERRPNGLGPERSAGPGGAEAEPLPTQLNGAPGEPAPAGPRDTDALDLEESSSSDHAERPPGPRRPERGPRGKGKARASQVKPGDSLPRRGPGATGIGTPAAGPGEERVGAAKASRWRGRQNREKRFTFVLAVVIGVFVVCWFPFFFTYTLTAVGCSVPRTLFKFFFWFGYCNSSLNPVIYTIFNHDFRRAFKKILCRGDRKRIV
The test is classed as functional, cell-based.

The target in test [8] is Delta-type opioid receptor (Homo sapiens, UniProt P41143).
Sequence of Delta-type opioid receptor (P41143 whole entry): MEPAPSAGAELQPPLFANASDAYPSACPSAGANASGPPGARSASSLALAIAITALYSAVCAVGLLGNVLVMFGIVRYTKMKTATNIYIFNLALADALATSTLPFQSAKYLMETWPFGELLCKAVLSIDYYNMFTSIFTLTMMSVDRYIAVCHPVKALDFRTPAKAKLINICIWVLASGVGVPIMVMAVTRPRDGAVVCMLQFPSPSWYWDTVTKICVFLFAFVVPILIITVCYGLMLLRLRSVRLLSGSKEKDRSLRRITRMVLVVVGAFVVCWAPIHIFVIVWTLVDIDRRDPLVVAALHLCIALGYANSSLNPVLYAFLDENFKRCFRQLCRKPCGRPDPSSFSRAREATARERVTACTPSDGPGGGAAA
Test [9] has as its target Histamine H2 receptor (Homo sapiens, UniProt P25021). The test is classed as functional, cell-based.
The target of test [10] is 5-hydroxytryptamine receptor 2A (Homo sapiens, UniProt P28223). Format: functional, cell-based.
Sequence of 5-hydroxytryptamine receptor 2A (P28223 whole entry): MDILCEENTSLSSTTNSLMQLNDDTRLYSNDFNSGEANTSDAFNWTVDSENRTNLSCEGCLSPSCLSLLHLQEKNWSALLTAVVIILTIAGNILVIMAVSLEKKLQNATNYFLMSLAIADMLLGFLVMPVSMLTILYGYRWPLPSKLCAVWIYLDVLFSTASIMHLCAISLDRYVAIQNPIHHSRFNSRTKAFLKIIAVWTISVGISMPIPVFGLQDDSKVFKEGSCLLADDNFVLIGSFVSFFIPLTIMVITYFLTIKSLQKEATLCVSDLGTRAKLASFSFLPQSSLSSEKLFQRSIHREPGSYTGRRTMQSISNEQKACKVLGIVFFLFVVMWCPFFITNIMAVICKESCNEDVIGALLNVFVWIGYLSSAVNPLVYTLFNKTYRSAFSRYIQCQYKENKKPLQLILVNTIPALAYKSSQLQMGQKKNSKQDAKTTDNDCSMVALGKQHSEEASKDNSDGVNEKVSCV
Test [11] concerns the target D(1A) dopamine receptor (Homo sapiens, UniProt P21728). Format: functional, cell-based.
Also: assay procedure not described here.

Sequence of Gamma-aminobutyric acid receptor subunit alpha-1 (P62813 whole entry): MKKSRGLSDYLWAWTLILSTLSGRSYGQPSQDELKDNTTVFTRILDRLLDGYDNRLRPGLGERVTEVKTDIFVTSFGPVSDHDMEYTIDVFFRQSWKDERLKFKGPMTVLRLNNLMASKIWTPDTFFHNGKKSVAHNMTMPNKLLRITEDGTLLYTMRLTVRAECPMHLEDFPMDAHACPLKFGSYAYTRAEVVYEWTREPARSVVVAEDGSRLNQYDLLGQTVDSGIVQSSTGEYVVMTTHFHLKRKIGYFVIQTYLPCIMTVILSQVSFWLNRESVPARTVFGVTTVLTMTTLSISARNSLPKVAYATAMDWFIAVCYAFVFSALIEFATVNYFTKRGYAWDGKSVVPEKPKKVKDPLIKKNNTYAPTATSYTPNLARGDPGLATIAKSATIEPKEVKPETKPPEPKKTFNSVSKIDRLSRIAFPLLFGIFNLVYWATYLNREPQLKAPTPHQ
Sequence of D(1A) dopamine receptor (P21728 whole entry): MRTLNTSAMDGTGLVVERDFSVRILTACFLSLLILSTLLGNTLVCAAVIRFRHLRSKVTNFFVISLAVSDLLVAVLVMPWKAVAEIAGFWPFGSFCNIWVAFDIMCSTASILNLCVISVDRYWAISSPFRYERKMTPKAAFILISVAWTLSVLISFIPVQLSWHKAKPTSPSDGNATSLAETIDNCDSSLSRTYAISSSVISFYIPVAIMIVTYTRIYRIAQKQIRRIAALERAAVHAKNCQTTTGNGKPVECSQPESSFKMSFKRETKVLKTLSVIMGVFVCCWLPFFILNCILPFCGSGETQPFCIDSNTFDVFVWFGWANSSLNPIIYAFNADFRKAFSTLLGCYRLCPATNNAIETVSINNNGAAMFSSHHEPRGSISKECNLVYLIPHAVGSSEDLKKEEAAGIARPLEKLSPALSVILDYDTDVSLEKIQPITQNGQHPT
Sequence of Histamine H2 receptor (P25021 whole entry): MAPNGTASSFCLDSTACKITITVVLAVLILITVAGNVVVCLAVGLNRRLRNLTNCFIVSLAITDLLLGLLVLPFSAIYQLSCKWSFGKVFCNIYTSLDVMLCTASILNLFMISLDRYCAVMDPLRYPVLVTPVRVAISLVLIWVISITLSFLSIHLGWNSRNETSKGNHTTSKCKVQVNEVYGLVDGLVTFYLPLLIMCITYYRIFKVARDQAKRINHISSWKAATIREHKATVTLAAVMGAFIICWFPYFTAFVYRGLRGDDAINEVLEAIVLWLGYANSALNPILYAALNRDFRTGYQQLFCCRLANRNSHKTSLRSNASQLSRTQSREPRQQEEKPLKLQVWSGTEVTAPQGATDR

For `C[C@@H](O)[C@H]1C(=O)N2C(C(=O)O)=C(S[C@@H]3CN[C@H](C(=O)Nc4cccc(C(=O)O)c4)C3)[C@H](C)[C@H]12`, the AC50 in [1] and in test [2] was more than 30 µM throughout.

For the molecule `Cc1ccc2c([nH]c(=O)c3c(=O)cc(C(=O)OCCC(C)C)oc32)c1C`, the AC50 is more than 10 µM in [3]; more than 30 µM in [4]; 0.0521 µM in [5]; more than 30 µM in test [6]; more than 30 µM in [2].

`COC(=O)N[C@H](C(=O)N1CC2(CC2)C[C@H]1c1ncc(-c2ccc3c(c2)C(F)(F)c2cc(-c4ccc5nc([C@@H]6[C@H]7CC[C@H](C7)N6C(=O)[C@@H](NC(=O)OC)C(C)C)[nH]c5c4)ccc2-3)[nH]1)C(C)C`: the AC50 in test [3] is more than 30 µM; in [4] it was more than 30 µM; in test [5], more than 10 µM; in test [6] it was more than 30 µM; in test [2] it was more than 10 µM.

As for `CC1(C)S[C@@H]2[C@H](NC(=O)[C@H](NC(=O)c3cnc4cccnc4c3O)c3ccccc3)C(=O)N2[C@H]1C(=O)O` [APALCILLIN], the AC50 in test [4] was more than 30 µM; in test [1] it was 1.25 µM; in test [5], 29 µM; in [6] it was more than 30 µM; in test [2] it was more than 30 µM.

On to `OCc1ccccc1` [BENZYL ALCOHOL], for which the AC50 in [3], in test [5] and in [2] was more than 30 µM each time.

Consider `CC(C)(C)NCC(O)COc1ccccc1C#N` (stereo not given) [BUNITROLOL], for which the AC50 in [4], in test [1], in [7], in [6], in test [2] and in [8] was more than 30 µM in each case. In addition, the concentration at half-maximal activity (AC50) in test [9], in test [10] and in [11] was more than 30 µM each time.

For `O=NN(CCCl)C(=O)NCCCl` [CARMUSTINE], the AC50 in test [1] and in test [2] was more than 30 µM throughout.

In the case of `CC1(C)C[C@@H]1C(=O)N/C(=C\CCCCSC[C@H](N)C(=O)O)C(=O)O` [CILASTATIN], the AC50 in [4], in test [1], in [6] and in test [2] was more than 30 µM throughout.

Regarding `COc1c(OCCCN2CCOCC2)ccc2c1N=C(NC(=O)c1cnc(N)nc1)N1CCN=C21` [COPANLISIB], the AC50 in test [4], in test [1], in test [6] and in test [2] was more than 30 µM in each case.

As for `CCOc1ccc(Cc2nccc3cc(OCC)c(OCC)cc23)cc1OCC` [ETHAVERINE], the concentration at half-maximal activity (AC50) in test [4] was 1.66 µM; in test [1] it was more than 30 µM; in test [5] it was 3.11 µM; in test [6] it was more than 30 µM; in [2], more than 30 µM.

Regarding `CC(NCCC(c1ccccc1)c1ccccc1)c1ccccc1` (stereo not given) [FENDILINE], the AC50 was more than 10 µM in test [3], 26.8 µM in test [5], 26.7 µM in test [6] and more than 30 µM in test [2].

As to `CC(C)(Oc1ccc(C(=O)c2ccc(Cl)cc2)cc1)C(=O)O` [FENOFIBRIC ACID], the AC50 in test [3], in test [4], in [5], in test [6] and in [2] was more than 30 µM throughout.

`COC(=O)Nc1nc2cc(C(=O)c3ccc(F)cc3)ccc2[nH]1` [FLUBENDAZOLE]: the concentration at half-maximal activity (AC50) is more than 30 µM in test [3], 8.69 µM in test [5] and more than 30 µM in test [2].

Consider `CC(O)(CC(=O)O)CC(=O)O` [MEGLUTOL], for which the AC50 is 9.87 µM in [4]; more than 30 µM in test [1]; more than 30 µM in test [5]; more than 30 µM in test [6]; more than 30 µM in test [2].

Turning to `Oc1ccc(OCc2ccccc2)cc1` [MONOBENZONE], the AC50 in test [3], in test [5] and in test [2] was more than 30 µM throughout.

In the case of `C[C@@H]1O[C@@H](O[C@H]2C[C@@H](O)[C@]3(CO)[C@H]4[C@H](O)C[C@]5(C)[C@@H](C6=CC(=O)OC6)CC[C@]5(O)[C@@H]4CC[C@]3(O)C2)[C@H](O)[C@H](O)[C@H]1O` [OUABAIN], the AC50 in test [3], in test [5] and in test [2] was more than 30 µM in each case.

For the molecule `CC(C)N1CCOC(c2cccc(C(F)(F)F)c2)C1` (stereo not given) [OXAFLOZANE], the AC50 in test [3], in test [4], in [5], in test [6] and in test [2] was more than 30 µM in each case.

As for `COc1ccc(C(=O)c2ccccc2)c(O)c1` [OXYBENZONE], the half-maximal activity concentration (AC50) in test [4] was more than 10 µM; in test [1], more than 30 µM; in [7] it was more than 30 µM; in [6], more than 30 µM; in test [2], more than 30 µM; in test [8] it was more than 30 µM. The AC50 in [9], in test [10] and in test [11] was more than 30 µM throughout.

Take `OC(CN1CCCCC1)c1cc(-c2ccccc2)on1` (stereo not given) [PERISOXAL]: the concentration at half-maximal activity (AC50) in test [1] and in test [2] was more than 30 µM throughout.

Take `CO[C@H]1/C=C/O[C@@]2(C)Oc3c(C)c(O)c4c(c3C2=O)C2=NC3(CCN(CC(C)C)CC3)NC2=C(NC(=O)/C(C)=C\C=C\[C@H](C)[C@H](O)[C@@H](C)[C@@H](O)[C@@H](C)[C@H](OC(C)=O)[C@@H]1C)C4=O` [RIFABUTIN]: the AC50 in test [3], in [5] and in test [2] was more than 30 µM each time.

For the molecule `[H]/N=C(/N)NS(=O)(=O)c1ccc(N)cc1` [SULFAGUANIDINE], the AC50 in [4], in test [1], in [5], in [6] and in test [2] was more than 30 µM throughout.

Consider `CC(=O)O[C@]1(C(C)=O)CC[C@H]2[C@@H]3CCC4=CC(=O)CCC4=C3[C@@H](c3ccc(N(C)C)cc3)C[C@@]21C` [ULIPRISTAL ACETATE], for which the AC50 in test [4] was more than 30 µM; in test [1], more than 30 µM; in test [6], more than 30 µM; in test [2], 0.03 µM.
